Experimental data reported in ChEMBL document CHEMBL1909046, “DrugMatrix in vitro pharmacology data”.
pIC50, pKi: −log10 of the molar value.

Legend:
[1] = molecular target: Beta-2 adrenergic receptor (Homo sapiens, UniProt P07550); assay: DRUGMATRIX: Adrenergic beta2 radioligand binding (ligand: [3H] CGP-12177); assay type: cell membranes, CHO, Membrane; details: Not Active = under 50% inhibition at 10 µM; for IC50: cho
[2] = molecular target: Beta-3 adrenergic receptor (Homo sapiens, UniProt P13945); assay: DRUGMATRIX: Adrenergic beta3 radioligand binding (ligand: [125I] Cyanopindolol); assay type: cell membranes, HEK293, Membrane; details: Not Active = under 50% inhibition at 10 µM; for IC50: hek293
Chain of Beta-3 adrenergic receptor (P13945 whole entry): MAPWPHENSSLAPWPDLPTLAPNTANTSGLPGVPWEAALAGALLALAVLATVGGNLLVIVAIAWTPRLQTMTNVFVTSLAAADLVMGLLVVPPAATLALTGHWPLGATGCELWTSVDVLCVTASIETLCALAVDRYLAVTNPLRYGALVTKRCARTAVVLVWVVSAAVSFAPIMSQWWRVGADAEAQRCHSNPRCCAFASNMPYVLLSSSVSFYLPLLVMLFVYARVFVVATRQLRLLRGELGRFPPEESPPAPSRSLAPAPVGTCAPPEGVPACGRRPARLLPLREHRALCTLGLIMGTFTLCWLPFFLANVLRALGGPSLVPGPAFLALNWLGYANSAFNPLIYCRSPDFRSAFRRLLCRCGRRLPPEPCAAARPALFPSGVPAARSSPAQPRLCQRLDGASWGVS

[3] = molecular target: T1, Thromboxane-A synthase (Homo sapiens, UniProt P24557); assay: biochemical; assay type: tissue-based, Platelet; details: for IC50: platelet;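 as to all read-outs here: enzyme inhibition assay with PGH2 supplied as substrate; in other assays of this panel Not Active means under 50% inhibition at 10 µM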
T1 sequence (P24557 whole entry): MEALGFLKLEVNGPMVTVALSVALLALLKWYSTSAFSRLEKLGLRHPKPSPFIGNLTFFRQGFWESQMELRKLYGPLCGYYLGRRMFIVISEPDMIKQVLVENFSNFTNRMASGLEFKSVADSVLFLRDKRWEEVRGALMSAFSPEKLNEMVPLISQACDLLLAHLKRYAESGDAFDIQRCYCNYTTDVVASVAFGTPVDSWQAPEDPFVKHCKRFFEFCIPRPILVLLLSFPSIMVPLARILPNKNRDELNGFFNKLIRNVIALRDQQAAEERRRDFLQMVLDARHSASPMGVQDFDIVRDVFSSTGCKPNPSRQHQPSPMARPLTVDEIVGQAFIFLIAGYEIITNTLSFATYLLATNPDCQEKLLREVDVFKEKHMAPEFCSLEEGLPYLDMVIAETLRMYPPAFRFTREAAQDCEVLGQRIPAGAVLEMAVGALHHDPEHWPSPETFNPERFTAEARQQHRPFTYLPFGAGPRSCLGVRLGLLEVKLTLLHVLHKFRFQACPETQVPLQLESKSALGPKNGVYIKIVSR

[4] = molecular target: T2, Vasoactive intestinal polypeptide receptor 1 (Homo sapiens, UniProt P32241); assay type: cell membranes, Membrane; details: ht-29; also: in other assays of this panel Not Active means under 50% inhibition at 10 µM
T2 sequence (P32241 whole entry): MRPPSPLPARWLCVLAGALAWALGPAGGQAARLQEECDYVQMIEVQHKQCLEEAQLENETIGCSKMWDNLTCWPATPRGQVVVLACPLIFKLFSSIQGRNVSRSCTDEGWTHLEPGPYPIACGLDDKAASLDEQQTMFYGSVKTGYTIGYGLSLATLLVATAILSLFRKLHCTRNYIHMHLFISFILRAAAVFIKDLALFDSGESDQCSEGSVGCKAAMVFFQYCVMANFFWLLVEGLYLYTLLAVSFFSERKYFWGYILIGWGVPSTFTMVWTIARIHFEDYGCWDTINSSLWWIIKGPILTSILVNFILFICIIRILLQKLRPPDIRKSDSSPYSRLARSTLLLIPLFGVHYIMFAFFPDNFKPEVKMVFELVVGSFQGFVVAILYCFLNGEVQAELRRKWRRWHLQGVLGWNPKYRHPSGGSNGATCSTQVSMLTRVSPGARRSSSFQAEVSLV

[5] = molecular target: Protein kinase C alpha type (Homo sapiens, UniProt P17252); assay type: cell-based; details: sf9;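 also: inhibition of PKCalpha kinase activity measured in an enzyme assay with histone as the phosphorylation substrate; in other assays of this panel Not Active means under 50% inhibition at 10 µM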
[6] = molecular target: Receptor tyrosine-protein kinase erbB-2 (Homo sapiens, UniProt P04626); assay: biochemical; assay type: cell-based, Insect cells; details: insect cells;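 also: inhibition of HER2 kinase enzyme activity, measured with Poly(Glu:Tyr) as the phosphorylation substrate; in other assays of this panel Not Active means under 50% inhibition at 10 µM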
Chain of Receptor tyrosine-protein kinase erbB-2 (P04626 whole entry): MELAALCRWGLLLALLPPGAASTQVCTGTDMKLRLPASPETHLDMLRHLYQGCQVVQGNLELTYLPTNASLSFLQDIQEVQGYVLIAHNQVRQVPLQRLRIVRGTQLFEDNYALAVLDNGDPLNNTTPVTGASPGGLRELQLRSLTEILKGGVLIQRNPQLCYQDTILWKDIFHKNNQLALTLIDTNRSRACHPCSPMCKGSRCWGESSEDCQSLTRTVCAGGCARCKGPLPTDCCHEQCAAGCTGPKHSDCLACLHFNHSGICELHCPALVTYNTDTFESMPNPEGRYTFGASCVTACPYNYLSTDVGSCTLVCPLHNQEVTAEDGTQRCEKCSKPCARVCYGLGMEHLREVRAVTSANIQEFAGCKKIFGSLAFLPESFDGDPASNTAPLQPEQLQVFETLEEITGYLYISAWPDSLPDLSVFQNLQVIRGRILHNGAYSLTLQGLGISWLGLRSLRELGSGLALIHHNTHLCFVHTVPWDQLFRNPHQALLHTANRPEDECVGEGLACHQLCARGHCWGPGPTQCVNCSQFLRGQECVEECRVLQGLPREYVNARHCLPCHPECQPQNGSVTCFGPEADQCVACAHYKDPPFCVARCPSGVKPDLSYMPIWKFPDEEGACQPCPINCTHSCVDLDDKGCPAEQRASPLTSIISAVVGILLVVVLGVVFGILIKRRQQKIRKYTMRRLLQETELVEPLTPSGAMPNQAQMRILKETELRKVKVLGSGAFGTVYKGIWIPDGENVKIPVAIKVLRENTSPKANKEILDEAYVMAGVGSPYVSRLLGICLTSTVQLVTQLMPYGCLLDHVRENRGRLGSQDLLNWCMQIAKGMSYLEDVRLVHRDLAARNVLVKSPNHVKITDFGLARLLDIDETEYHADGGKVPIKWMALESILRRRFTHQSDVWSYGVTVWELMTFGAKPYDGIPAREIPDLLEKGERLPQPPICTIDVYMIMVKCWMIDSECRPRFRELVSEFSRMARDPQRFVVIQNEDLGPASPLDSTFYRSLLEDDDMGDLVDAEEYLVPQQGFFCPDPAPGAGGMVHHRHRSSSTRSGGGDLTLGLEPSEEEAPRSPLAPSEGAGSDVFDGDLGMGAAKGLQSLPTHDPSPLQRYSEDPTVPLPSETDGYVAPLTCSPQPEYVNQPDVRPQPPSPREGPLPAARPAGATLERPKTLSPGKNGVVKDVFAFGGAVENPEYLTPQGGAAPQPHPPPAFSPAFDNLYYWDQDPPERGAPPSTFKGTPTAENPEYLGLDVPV

[7] = molecular target: Cytochrome P450 2E1 (Homo sapiens, UniProt P05181); details: bti-tn-5b1-4; also: in other assays of this panel Not Active means under 50% inhibition at 10 µM
Chain of Cytochrome P450 2E1 (P05181 whole entry): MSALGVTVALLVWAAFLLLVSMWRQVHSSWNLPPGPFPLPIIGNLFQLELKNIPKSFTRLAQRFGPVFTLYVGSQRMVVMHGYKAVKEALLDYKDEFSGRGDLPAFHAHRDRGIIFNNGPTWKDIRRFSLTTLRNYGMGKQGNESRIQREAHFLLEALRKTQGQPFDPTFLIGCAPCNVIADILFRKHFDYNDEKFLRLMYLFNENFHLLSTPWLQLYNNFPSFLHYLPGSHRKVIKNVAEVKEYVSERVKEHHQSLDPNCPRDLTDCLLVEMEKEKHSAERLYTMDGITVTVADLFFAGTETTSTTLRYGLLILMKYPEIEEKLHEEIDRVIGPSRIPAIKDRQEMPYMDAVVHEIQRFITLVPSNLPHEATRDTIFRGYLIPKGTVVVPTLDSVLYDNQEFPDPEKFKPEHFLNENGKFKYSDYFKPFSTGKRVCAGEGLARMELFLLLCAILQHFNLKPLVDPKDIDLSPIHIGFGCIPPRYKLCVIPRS

Chain of Beta-2 adrenergic receptor (P07550 whole entry): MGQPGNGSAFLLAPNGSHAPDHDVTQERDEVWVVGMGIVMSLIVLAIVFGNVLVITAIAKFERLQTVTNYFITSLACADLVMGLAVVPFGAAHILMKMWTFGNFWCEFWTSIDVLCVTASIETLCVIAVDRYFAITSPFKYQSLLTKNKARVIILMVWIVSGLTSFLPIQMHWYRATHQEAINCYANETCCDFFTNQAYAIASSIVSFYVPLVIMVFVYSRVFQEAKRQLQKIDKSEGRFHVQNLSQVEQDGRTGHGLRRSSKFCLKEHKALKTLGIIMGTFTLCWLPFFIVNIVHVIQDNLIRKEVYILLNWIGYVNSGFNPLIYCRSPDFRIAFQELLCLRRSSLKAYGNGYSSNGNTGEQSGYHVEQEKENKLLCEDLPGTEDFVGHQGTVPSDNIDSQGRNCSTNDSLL

| Structure (SMILES) | pIC50 ([1]; read-out: IC50) | pKi ([1]; read-out: Ki) | IC50 [2] | IC50 [3] | IC50 [4] | IC50 [5] | IC50 [6] | IC50 [7] | Ki [7] | IC50 [1] | pIC50 ([2]; read-out: IC50) | pKi ([2]; read-out: Ki) | pIC50 ([3]; read-out: IC50) |
| --- | --- | --- | --- | --- | --- | --- | --- | --- | --- | --- | --- | --- | --- |
| CC(C)NCC(O)c1ccccc1Cl (configuration not stated) [CLORPRENALINE] | 5.70 | 5.86 | Not Active | Not Active | Not Active | Not Active | Not Active | Not Active | Not Active | – | – | – | – |
| CN1CCN(C(c2ccccc2)c2ccccc2)CC1 [CYCLIZINE] | – | – | Not Active | Not Active | Not Active | Not Active | Not Active | Not Active | Not Active | Not Active | – | – | – |
| CN1C[C@@H]2C[C@H]1CN2c1cc2c(cc1F)c(=O)c(C(=O)O)cn2C1CC1 [DANOFLOXACIN] | – | – | Not Active | Not Active | Not Active | Not Active | Not Active | Not Active | Not Active | Not Active | – | – | – |
| COc1cccc2c1C(=O)c1c(O)c3c(c(O)c1C2=O)C[C@@](O)(C(C)=O)C[C@@H]3O[C@H]1C[C@H](N)[C@H](O)[C@H](C)O1 [DAUNORUBICIN] | – | – | Not Active | Not Active | Not Active | Not Active | Not Active | Not Active | Not Active | Not Active | – | – | – |
| O=C(O)c1cc(-c2ccc(F)cc2F)ccc1O [DIFLUNISAL] | – | – | Not Active | Not Active | Not Active | Not Active | Not Active | Not Active | Not Active | Not Active | – | – | – |
| C[S+](C)[O-] [DIMETHYL SULFOXIDE] | – | – | Not Active | Not Active | Not Active | Not Active | Not Active | Not Active | Not Active | Not Active | – | – | – |
| CC1=NN(c2ccccc2)C(=O)C1 [EDARAVONE] | – | – | Not Active | Not Active | Not Active | Not Active | Not Active | Not Active | Not Active | Not Active | – | – | – |
| CC(C)C[C@H]1C(=O)N2CCC[C@H]2[C@]2(O)O[C@](NC(=O)[C@@H]3C=C4c5cccc6[nH]cc(c56)C[C@H]4N(C)C3)(C(C)C)C(=O)N12 [ERGOCRYPTINE] | – | – | – | Not Active | Not Active | Not Active | Not Active | Not Active | Not Active | Not Active | 5.60 | 5.73 | – |
| C[C@]12CC[C@@H]3c4ccc(O)cc4CC[C@H]3[C@@H]1C[C@@H](O)[C@@H]2O [ESTRIOL] | – | – | Not Active | Not Active | Not Active | Not Active | Not Active | Not Active | Not Active | Not Active | – | – | – |
| C#C[C@]1(O)CC[C@H]2[C@@H]3CCC4=CC(=O)CC[C@]4(C)[C@H]3CC[C@@]21C [ETHISTERONE] | – | – | Not Active | Not Active | Not Active | Not Active | Not Active | Not Active | Not Active | Not Active | – | – | – |
| CC(O)(P(=O)(O)O)P(=O)(O)O [ETIDRONIC ACID] | – | – | Not Active | Not Active | Not Active | Not Active | Not Active | Not Active | Not Active | Not Active | – | – | – |
| CC(C)(C(=O)O)c1ccc(C(O)CCCN2CCC(C(O)(c3ccccc3)c3ccccc3)CC2)cc1 (configuration not stated) [FEXOFENADINE] | – | – | Not Active | Not Active | Not Active | Not Active | Not Active | Not Active | Not Active | Not Active | – | – | – |
| CN1CCN(c2c(F)cc3c(=O)c(C(=O)O)cn(CCF)c3c2F)CC1 [FLEROXACIN] | – | – | Not Active | Not Active | Not Active | Not Active | Not Active | Not Active | Not Active | Not Active | – | – | – |
| O=c1[nH]c(=O)n([C@H]2C[C@H](O)[C@@H](CO)O2)cc1F [FLOXURIDINE] | – | – | Not Active | Not Active | Not Active | Not Active | Not Active | Not Active | Not Active | Not Active | – | – | – |
| COC(=O)Nc1nc2cc(C(=O)c3ccc(F)cc3)ccc2[nH]1 [FLUBENDAZOLE] | – | – | Not Active | Not Active | Not Active | Not Active | Not Active | Not Active | Not Active | Not Active | – | – | – |
| CC(=O)OCC(=O)[C@@]1(O)CC[C@H]2[C@@H]3CCC4=CC(=O)CC[C@]4(C)[C@@]3(F)[C@@H](O)C[C@@]21C [FLUDROCORTISONE ACETATE] | – | – | Not Active | Not Active | Not Active | Not Active | Not Active | Not Active | Not Active | Not Active | – | – | – |
| CCOC(=O)c1ncn2c1CN(C)C(=O)c1cc(F)ccc1-2 [FLUMAZENIL] | – | – | Not Active | Not Active | Not Active | Not Active | Not Active | Not Active | Not Active | Not Active | – | – | – |
| O=C(O)P(=O)(O)O [FOSCARNET] | – | – | Not Active | Not Active | Not Active | Not Active | Not Active | Not Active | Not Active | Not Active | – | – | – |
| Cc1ccc(C)c(OCCCC(C)(C)C(=O)O)c1 [GEMFIBROZIL] | – | – | Not Active | Not Active | Not Active | Not Active | Not Active | Not Active | Not Active | Not Active | – | – | – |
| O=c1c(-c2ccc(O)cc2)coc2cc(O)cc(O)c12 [GENISTEIN] | – | – | Not Active | – | Not Active | Not Active | Not Active | Not Active | Not Active | Not Active | – | – | 5.11 |
